Measurements as given in article PMC11241262, “Unravelling the Antifibrinolytic Mechanism of Action of the 1,2,3-Triazole Derivatives” (International Journal of Molecular Sciences, 2024).

What was measured:
[1] = target: T1, plasmin (Homo sapiens, UniProt P00747); test: Plasmin activity assay (Plasmin Inhibitor Screening Assay Kit); format: biochemical; details: for inhibition at 500 µM: 0.5 mM; for inhibition at 5000 µM: 5 mM; for inhibition at 10000 µM: 10 mM; for inhibition at 15000 µM: 15 mM; for inhibition at 20000 µM: 20 mM; for inhibition at 30000 µM: 30 mM; for increase of IC50 of plasmin's catalytic domain compared to IC50 in plasma clot lysis assay: plasma clot lysis IC50 from Bosch-Sanz et al. [43]
T1 construct: purchased abcam
T1 sequence (P00747 97-580 limits assumed): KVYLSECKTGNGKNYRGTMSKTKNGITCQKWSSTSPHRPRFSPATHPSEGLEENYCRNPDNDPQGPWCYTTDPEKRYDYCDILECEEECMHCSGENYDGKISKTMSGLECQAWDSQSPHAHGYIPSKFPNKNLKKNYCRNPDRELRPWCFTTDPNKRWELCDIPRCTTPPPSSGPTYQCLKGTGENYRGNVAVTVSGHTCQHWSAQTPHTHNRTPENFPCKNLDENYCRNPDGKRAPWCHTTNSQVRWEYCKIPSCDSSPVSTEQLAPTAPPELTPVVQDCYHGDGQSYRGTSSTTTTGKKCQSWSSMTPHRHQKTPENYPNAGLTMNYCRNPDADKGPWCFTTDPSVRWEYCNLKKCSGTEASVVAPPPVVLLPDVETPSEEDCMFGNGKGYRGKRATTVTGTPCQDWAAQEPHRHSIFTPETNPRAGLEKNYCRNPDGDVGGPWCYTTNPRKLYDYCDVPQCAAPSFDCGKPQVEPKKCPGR
T1 sequence (P00747 581-810 limits assumed): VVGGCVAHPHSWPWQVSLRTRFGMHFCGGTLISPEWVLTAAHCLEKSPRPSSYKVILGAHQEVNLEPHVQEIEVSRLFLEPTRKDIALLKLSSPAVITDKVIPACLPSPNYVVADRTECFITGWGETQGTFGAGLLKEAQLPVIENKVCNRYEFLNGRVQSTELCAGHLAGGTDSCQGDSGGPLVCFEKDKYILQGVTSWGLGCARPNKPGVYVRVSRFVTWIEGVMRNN
Description: The potential activity of the studied compounds on the catalytic domain of plasmin was evaluated using the Plasmin Inhibitor Screening Assay Kit (abcam), following the manufacturer’s instructions. Briefly, the assay measures the inhibition of plasmin’s activity by the tested compounds through the cleavage of a fluorogenic peptide substrate. The assay was performed in flat-bottom 96-well plates. Plasmin was pre-incubated with different concentrations of the tested compounds for 10 min at RT prior to the addition of the peptide substrate. Plasmin’s activity was then measured by monitoring the increase in fluorescence intensity over time using a microplate reader (Infinite M Plex, Tecan, Männedorf, Switzerland) at an Ex/Em of 360/450 nm, every minute at 37 °C for 10 min. The slope of each sample was determined using the initial and final fluorescence values and their respective time points. (1) Fluorescence slope=RFU2−RFU1/t2−t1
The Relative Plasmin Inhibition was calculated according to the manufacturer’s instructions using a control slope with no compound (enzyme control):(2) Relative Plasmin Inhibition%=SlopeControl−SlopeCompound/SlopeControl×100

[2] = target: T2, tissue-type plasminogen activator (tPA) (Homo sapiens, UniProt P00750); test: tPA activity assay (chromogenic substrate); format: biochemical; details: for activity on tPA's active site: at the tested concentrations
T2 construct: purchased abcam
T2 sequence (P00750 36-562): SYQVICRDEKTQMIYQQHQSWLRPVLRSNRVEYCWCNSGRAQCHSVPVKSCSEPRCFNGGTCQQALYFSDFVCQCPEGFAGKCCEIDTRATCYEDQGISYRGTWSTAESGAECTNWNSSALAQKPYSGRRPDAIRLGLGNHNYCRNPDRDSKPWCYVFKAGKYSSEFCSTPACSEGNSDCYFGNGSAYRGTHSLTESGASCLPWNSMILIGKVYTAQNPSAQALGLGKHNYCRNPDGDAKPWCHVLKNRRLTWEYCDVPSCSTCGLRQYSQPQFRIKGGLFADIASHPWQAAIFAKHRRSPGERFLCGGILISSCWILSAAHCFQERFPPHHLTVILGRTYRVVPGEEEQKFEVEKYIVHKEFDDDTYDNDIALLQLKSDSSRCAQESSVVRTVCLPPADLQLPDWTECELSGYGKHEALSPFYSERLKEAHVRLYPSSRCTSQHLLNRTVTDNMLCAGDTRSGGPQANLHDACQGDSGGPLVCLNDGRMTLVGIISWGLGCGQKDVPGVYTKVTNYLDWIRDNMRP
Description: Tris hydrochloride, 1M, pH = 7.5 solution (Thermo Fisher Scientific, Waltham, MA, USA) was used as buffer. […] Recombinant human Tissue Plasminogen Activator (abcam, Cambridge, UK) served as the source of tPA, and was stored at −20 °C until used.
The assay measures the inhibition of tPA’s catalytic domain by the tested compounds employing a chromogenic substrate. Different concentrations of the studied molecules were incubated with tPA in a 96-well plate at 37 °C for 10 min. […] After, 20 μL of tPA’s substrate was added to each well. […] The slope for each assay was obtained from the initial and final absorbance values and their respective time points, or until complete substrate cleavage was achieved. (3) Absorbance slope=Abs2−Abs1/t2−t1
The Relative tPA Inhibition for each condition was calculated using Equation (2). Then, the Relative tPA Activity (%) was calculated by subtracting the relative tPA inhibition of each concentration from the total activity of the enzyme, obtained from a control without a compound.

[3] = target: T3, plasminogen (Homo sapiens, UniProt P00747); test: Plasminogen activation assay (conversion of plasminogen into plasmin by tPA in the absence of fibrin); format: biochemical; details: for concentration at which compound increased tPA's activity by 50%: plasminogen-tPA isolated system, absence of fibrin
T3 construct: purchased abcam
T3 sequence (P00747 20-810 limits assumed): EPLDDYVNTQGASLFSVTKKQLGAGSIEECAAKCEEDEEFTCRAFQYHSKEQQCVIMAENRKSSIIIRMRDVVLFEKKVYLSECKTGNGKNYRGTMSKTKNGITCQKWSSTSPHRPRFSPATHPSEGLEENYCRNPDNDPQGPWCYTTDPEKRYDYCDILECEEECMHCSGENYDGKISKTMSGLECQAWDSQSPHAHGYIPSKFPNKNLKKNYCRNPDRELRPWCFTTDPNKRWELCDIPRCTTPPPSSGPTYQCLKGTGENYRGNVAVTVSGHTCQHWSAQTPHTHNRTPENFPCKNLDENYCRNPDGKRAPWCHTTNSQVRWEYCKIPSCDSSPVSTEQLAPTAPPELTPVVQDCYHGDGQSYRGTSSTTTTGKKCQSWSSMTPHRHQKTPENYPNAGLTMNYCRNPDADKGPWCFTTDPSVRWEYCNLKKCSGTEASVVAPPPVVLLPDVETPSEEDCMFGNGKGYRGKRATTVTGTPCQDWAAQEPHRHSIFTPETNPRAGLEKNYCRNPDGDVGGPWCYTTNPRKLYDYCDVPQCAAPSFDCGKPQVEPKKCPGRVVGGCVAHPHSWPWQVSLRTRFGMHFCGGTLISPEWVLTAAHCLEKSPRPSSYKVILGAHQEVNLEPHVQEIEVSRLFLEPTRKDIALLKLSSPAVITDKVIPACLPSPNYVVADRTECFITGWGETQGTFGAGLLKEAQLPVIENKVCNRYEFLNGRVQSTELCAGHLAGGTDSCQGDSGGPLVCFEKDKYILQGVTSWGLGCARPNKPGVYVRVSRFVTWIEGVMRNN
Description: The conversion rate of plasminogen to plasmin was assessed using the Tissue-Type Plasminogen Activator Activity Assay Kit (abcam), following the manufacturer’s instructions. The assay measures the ability of tPA to activate plasminogen to plasmin in the presence of the tested compounds using a chromogenic substrate.
A solution of plasminogen and plasmin substrate was mixed with a previously prepared solution of the studied compound and tPA in Tris HCl buffer in a 96-well plate. The final concentration of tPA in each well was 6.8 µg/mL, in a final volume of 100 µL. Absorbance was measured on a microplate reader at a wavelength of 405 nm every minute at 37 °C for 2 h or until the system reached saturation. The absorbance slope of each sample was determined using Equation (3). The Relative Plasminogen Activation (%) for each condition was calculated with Equation (4), using a control without a compound (enzyme control). (4) Relative Plasminogen Activation (%)=SlopeCompound−SlopeControl/SlopeControl×100
Values were fitted to a linear model using MATLAB R2023a (The Math Works Inc., Natick, MA, USA). Concentrations at which each compound was able to increase plasminogen’s conversion by 50% in comparison to the enzyme control were extracted and compared for the three molecules.

[4] = tested on: whole blood clots; test: Whole blood dosage (effective antifibrinolytic dosage, tPA-triggered clot lysis); parameters: species or system human; details: 10 µg/mL tPA, 37 °C
Description: (§1) Blood was obtained by venipuncture from healthy donors after they signed an informed consent form. Blood was transferred into vacuum non-anticoagulant Vacutainer® tubes (BD, Franklin Lakes, NJ, USA). Blood samples were immediately used for the assay after extraction.
Glass tubes were prepared with 20 µL of a mixture of tPA, in a final concentration of 10 µg/mL, and the evaluated compounds, in a final concentration of 10, 20, 40, or 60 µM in Tris HCl buffer. A control clot was obtained with 20 µL of tPA with no compound. Then, 800 µL of blood was transferred to each tube and tubes were monitored for clot formation and lysis. The assay was performed with casual shaking. […] The ex vivo effective dosage for each compound was determined by their ability to inhibit complete clot degradation. Photographs were taken after 24 h of incubation.

[5] = ref [28],[29],[35]; cited from earlier work
[6] = mostly cardiac surgery patients; ref [21],[29],[36],[37],[38]; cited from earlier work
[7] = tested on: whole blood clot formation; test: Whole blood coagulation assay (clot formation, no exogenous tPA); parameters: species or system human; details: 40 µM, 37 °C, fibrinolysis not triggered
Description: as §1
Prior to blood addition, 20 µL of the evaluated compounds was added to glass tubes, in a final concentration of 40 µM. As a control clot, 20 µL of Tris HCl buffer with no compound was used. Next, 800 µL of blood was transferred to each tube followed by casual shaking to ensure proper mixing. Tubes were incubated at 37 °C for 30 min to allow clot formation and posterior lysis. Blood clotting and lysis were visually monitored and photographs were taken after 30 min.

[8] = tested on: whole blood clots; test: Whole blood clot lysis assay (D-dimer ELISA); parameters: species or system human; details: 20 µM, 10 µg/mL tPA
Description: as §1
The quantification of D-dimer released during clot lysis was performed using the human D-dimer ELISA kit (Thermo Fisher Scientific). Directly after extraction, 500 µL of blood was transferred to four different glass tubes and allowed to clot for 10 min at 37 °C. Tubes were incubated at 37 °C for an additional 1 h to enable clot retraction from the walls of the glass tubes [53]. Then, 100 µL of a mixture of tPA and the studied compounds was added on top of each clot. […] As a control clot, 100 µL of tPA without compound in Tris HCl buffer was added. Tubes were incubated at 37 °C and, at time points of 5 min, 2, 4, 7, and 24 h, samples of each tube were extracted for D-dimer quantification. After gentle shaking of the tubes, 5 µL of the supernatant from each tube was pipetted into Eppendorf tubes and stored at −20 °C until assayed. The ELISA assay was performed as described by the manufacturer’s instructions and absorbance was read in a microplate reader at the wavelengths of 450 nm and 550 nm. […]

[9] = read-out: percentage of plasmin's inhibition

NC[C@H]1CC[C@H](C(=O)O)CC1 [TXA, tranexamic acid, reference compound]
inhibition at 500 µM [1, 9]: 2.61%
inhibition at 5000 µM [1, 9]: 12.3%
inhibition at 10000 µM [1, 9]: 22.4%
inhibition at 15000 µM [1, 9]: 28%
inhibition at 20000 µM [1, 9]: 29.1%
inhibition at 30000 µM [1, 9]: 53.1%
inhibition at 50000 µM ([1]; 50 mM, read-out: percentage of plasmin's inhibition): 59.2%
increase of IC50 of plasmin's catalytic domain compared to IC50 in plasma clot lysis assay [1]: 1000 fold
percentage of tPA's activity ([2]; 0.5 mM): 92.08%
percentage of tPA's activity ([2]; 1 mM): 89.90%
percentage of tPA's activity ([2]; 5 mM): 87.18%
percentage of tPA's activity ([2]; 10 mM): 87.33%
percentage of tPA's activity ([2]; 15 mM): 84.84%
activity on tPA's active site [2]: no activity
concentration at which compound increased tPA's activity by 50% [3]: 283.01 µM
effective dosage (concentration preventing complete clot degradation after 24 h) [4]: 60 µM
cerebrospinal fluid concentration as share of plasma concentration [5]: approximately 10%
increased incidence of postoperative seizures [6]: 7 fold
effect on clot formation [7]: do not have any effect

O=c1[nH]c(-c2cn(C3CCNCC3)nn2)no1 [compound 1]
inhibition at 500 µM [1, 9]: 0.56%
inhibition at 5000 µM [1, 9]: 4.3%
inhibition at 10000 µM [1, 9]: 7.36%
inhibition at 15000 µM [1, 9]: 11.6%
inhibition at 20000 µM [1, 9]: 48%
inhibition at 30000 µM [1, 9]: 76.6%
IC50 ([1]; inhibition of plasmin's cleavage of a synthetic substrate by 50%): 20.6 ± 0.78 mM
increase of IC50 of plasmin's catalytic domain compared to IC50 in plasma clot lysis assay [1]: 1000 fold
improvement in antifibrinolytic activity over TXA (D-dimer quantification) ([8]; whole blood): more than 2 fold
D-dimer release lower than for compound 5 ([8]; timepoint 24 h): around 35%
percentage of tPA's activity ([2]; 0.5 mM): 96.53%
percentage of tPA's activity ([2]; 1 mM): 94.21%
percentage of tPA's activity ([2]; 5 mM): 96.95%
percentage of tPA's activity ([2]; 10 mM): 91.20%
percentage of tPA's activity ([2]; 15 mM): 101.89%
activity on tPA's active site [2]: no activity
potency relative to TXA in catalyzing plasminogen's activation by tPA ([3]; from concentration enhancing tPA's activity by 50%): more than 50 times
concentration at which compound increased tPA's activity by 50% [3]: 4.67 µM
effective dosage (concentration preventing complete clot degradation after 24 h) [4]: 10 µM
effect on clot formation [7]: do not have any effect
